In general, melting point refers to the temperature, or range, at which the solid turns liquid.

Each structure is given as a SMILES string.

In the case of `CCn1cnc2c(Nc3cccc(NC(=O)C#CCN4CCCCC4)c3)nc(NC3CCC(O)CC3)nc21` (centres unmarked) [Example 111, 4-Piperidin-1-yl-but-2-ynoic acid {3-[9-ethyl-2-(4-hydroxy-cyclohexyl-amino)-9H-purin-6-ylamino]-phenyl}-amide], the melting point was found to be 150 °C.

In the case of `CCn1cnc2c(Nc3cccc(NC(=O)C#CCN4CCN(C)CC4)c3)nc(NC3CCC(O)CC3)nc21` (centres unmarked) [Example 112, 4-(4-Methyl-piperazin-1-yl)-but-2-ynoic acid {3-[9-ethyl-2-(4-hydroxy-cyclohexylamino)-9H-purin-6-ylamino]-phenyl)-amide], the melting point was in the range of 115 to 122 °C.

The values above are taken from patent US6767906B2, “2-amino-6-anilino-purines and their use as medicaments” (Novartis AG, priority 1999, dated 2004).
